The subject of the assay is ASIC2a+3. As to the kind of experiment: Whole cell patch clamp of ASIC2a/3 channel complex heterologously expressed in CHO cells (Example 3). The format is cell-based. The settings on record: 50 μM; CHO cells expressing ASIC2a+3; FIG. 10A. How it is done:
Another example of an in vitro assessment method consists of using mammalian heterologous expression systems, which are known to the skilled in the art, and include a variety of mammalian cell lines such as COS, HEK, e.g., HEK293 and/or CHO, cells. Cell lines are transfected with gated ion channel(s) and used to perform electrophysiology as follows: All experiments are performed at room temperature (20-25° C.) in voltage clamp using conventional whole cell patch clamp methods (Neher, E., et al. (1978) Pfluegers Arch 375:219-228). The amplifier used is the EPC-9 (HEKA-electronics, Lambrect, Germany) run by a Macintosh G3 computer via an ITC-16 interface. Experimental conditions are set with the Pulse-software accompanying the amplifier. Data is low pass filtered and sampled directly to hard-disk at a rate of 3 times the cut-off frequency. […] The cells are held at a holding voltage of −60 mV and at the start of each experiment the current is continuously measured for 45 s to ensure a stable baseline. […] Current amplitudes are measured at the peak of the responses, and effect of the compounds is calculated as the amplitude at compound equilibrium divided by the amplitude of the current evoked by the pulse just before the compound is included. […] The trace represents the current evoked by the pH drop recorded using whole cell patch clamp electrophysiology.
A general note: Patch clamp records ionic current or voltage across a cell membrane.

Consider `Cc1ccc(-c2nc(Nc3ccc(C(=O)O)cc3)c3cc(Cl)ccc3n2)cc1` [Compound 124], for which the “pH evoked response (ASIC2a+3 current)” value is reported as “markedly reduced”.
